The experiment relates to isolated human stratum corneum (SC). Put plainly: DSC lipid disorganization (shift of melting transition temperatures) of treated stratum corneum. Particulars: 15 minutes per treatment, 75% RH, RT.

Description: Various compositions (alkaline versus acidic) and treatment protocols were tested and compared to determine which compositions and protocols produced the greatest degree of lipid disorganization, which is a common method for estimating the desquamation efficacy. All DSC experiments were performed on isolated human stratum corneum (SC). The SC was prepared using a standard protocol. Human abdominal skin remaining from plastic surgery was obtained in frozen form. Subcutaneous fat was removed and the dermis was separated from epidermis by plunging the skin into hot water (56° C.) for 1-2 min. The remaining viable epidermis was removed by tryptic digestion at 37° C. overnight. The SC was dried and stored at room temperature and ambient humidity. […]
The degree of lipid disorganization following treatment can be conveniently monitored by the shifts of the melting transition temperatures measured by Differential Scanning Calorimetry (DSC). […]
The maxima of the endothermic peaks corresponding to lipid phase transitions are determined using dedicated software (TA Universal Analysis). The peak position and the transition enthalpy are determined with respect to a manually defined linear baseline. […] The shifts of the melting peak positions (ΔTm(T2) and ΔTm(T3)) are calculated with respect to reference thermogrammes obtained with untreated or vehicle-treated samples. […]

Consider `O=C(O)CO` [70% GA, glycolic acid], for which the ΔT runs as follows: (Example 3, ΔTeffective=0.7·ΔTm(T2)+0.3ΔTm(T3) vs untreated or vehicle-treated SC, 0.1 gram, decrease of 2° C. considered significant) −4.6; (Example 4, same manner as Example 3, different alkaline agents) −7.1.

(Values after patent US20200030202A1, “TWO-STEP TREATMENT FOR DESQUAMATION OF SKIN” (L'OREAL, priority 2018, published 2020).)
